{
  "source": "patent US20250019377A1",
  "about": "(JACOBIO PHARMACEUTICALS CO., LTD, priority 2021, published 2025)",
  "key": {"[1]": {"target": "T1, K-Ras G12V (Homo sapiens, UniProt P01116, G12V)", "T1 sequence (P01116 1-169 isoform P01116-2 G12V)": "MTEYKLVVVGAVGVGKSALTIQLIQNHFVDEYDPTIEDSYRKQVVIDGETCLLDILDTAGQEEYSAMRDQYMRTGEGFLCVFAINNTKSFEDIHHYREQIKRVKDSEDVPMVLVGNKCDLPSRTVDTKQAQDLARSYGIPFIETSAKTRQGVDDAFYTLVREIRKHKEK", "experiment": "SOS1 catalyzed nucleotide exchange assay (GDP form K-Ras), K-Ras G12V", "details": "read-out: K-Ras G12V GDP Biochemical Activity (IC50)"}, "[2]": {"target": "T2, K-Ras G12C (Homo sapiens, UniProt P01116, G12C)", "T2 sequence (P01116 1-169 isoform P01116-2 G12C)": "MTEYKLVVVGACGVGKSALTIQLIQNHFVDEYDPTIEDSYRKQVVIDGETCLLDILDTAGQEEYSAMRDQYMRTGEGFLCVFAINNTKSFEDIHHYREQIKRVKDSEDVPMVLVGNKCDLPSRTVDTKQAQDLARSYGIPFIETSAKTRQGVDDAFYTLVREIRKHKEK", "experiment": "SOS1 catalyzed nucleotide exchange assay (GDP form K-Ras), K-Ras G12C", "details": "read-out: K-Ras G12C GDP Biochemical Activity (IC50)"}, "[3]": {"target": "T3, K-Ras G12A (Homo sapiens, UniProt P01116, G12A)", "T3 sequence (P01116 1-169 isoform P01116-2 G12A)": "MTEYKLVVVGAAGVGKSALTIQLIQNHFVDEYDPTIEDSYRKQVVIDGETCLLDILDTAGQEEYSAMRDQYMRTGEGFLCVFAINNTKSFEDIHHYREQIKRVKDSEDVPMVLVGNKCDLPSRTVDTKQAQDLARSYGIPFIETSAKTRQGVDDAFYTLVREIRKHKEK", "experiment": "SOS1 catalyzed nucleotide exchange assay (GDP form K-Ras), K-Ras G12A", "details": "read-out: K-Ras G12A GDP Biochemical Activity (IC50)"}, "[4]": {"target": "T4, K-Ras G12R (Homo sapiens, UniProt P01116, G12R)", "T4 sequence (P01116 1-169 isoform P01116-2 G12R)": "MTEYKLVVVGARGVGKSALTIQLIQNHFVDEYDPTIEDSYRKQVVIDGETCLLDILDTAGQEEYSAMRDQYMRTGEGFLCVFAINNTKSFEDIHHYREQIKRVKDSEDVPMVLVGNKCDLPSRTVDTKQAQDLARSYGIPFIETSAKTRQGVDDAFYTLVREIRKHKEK", "experiment": "SOS1 catalyzed nucleotide exchange assay (GDP form K-Ras), K-Ras G12R", "details": "read-out: K-Ras G12R GDP Biochemical Activity (IC50)"}, "[5]": {"target": "T5, K-Ras Q61H (Homo sapiens, UniProt P01116, Q61H)", "T5 sequence (P01116 1-169 isoform P01116-2 Q61H)": "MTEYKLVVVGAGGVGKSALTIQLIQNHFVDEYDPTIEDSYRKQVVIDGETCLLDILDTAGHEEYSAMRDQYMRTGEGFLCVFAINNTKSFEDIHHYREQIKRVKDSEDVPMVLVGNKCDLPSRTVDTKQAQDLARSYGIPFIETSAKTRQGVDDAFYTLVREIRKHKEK", "experiment": "SOS1 catalyzed nucleotide exchange assay (GDP form K-Ras), K-Ras Q61H", "details": "read-out: K-Ras Q61H GDP Biochemical Activity (IC50)"}, "[6]": {"target": "T6, K-Ras WT (Homo sapiens, UniProt P01116)", "T6 sequence (P01116 1-169 isoform P01116-2)": "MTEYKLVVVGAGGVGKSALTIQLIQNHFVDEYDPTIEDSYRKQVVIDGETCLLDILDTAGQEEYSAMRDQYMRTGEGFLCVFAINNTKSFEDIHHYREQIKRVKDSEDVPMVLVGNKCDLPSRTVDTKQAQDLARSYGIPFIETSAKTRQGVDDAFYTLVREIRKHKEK", "experiment": "SOS1 catalyzed nucleotide exchange assay (GDP form K-Ras), K-Ras WT", "details": "read-out: K-Ras WT GDP Biochemical Activity (IC50)"}, "[7]": {"test_system": "p-ERK in AGS cells (K-Ras G12D)", "experiment": "Phospho-ERK1/2(THR202/TYR204) HTRF assay, AGS", "type": "cell-based", "details": "Homo sapiens, 2 h, 2 hours incubation", "method": "(§1) p-ERK (MAPK pathway) inhibition activity of each of compounds in a variety of K-Ras mutant and K-Ras WT cell lines indicated in Table 23 was evaluated.\n(§2) Each of cells in culture medium was seeded in 96-well plates at density indicated in Table 23 and then put in a cell incubator to incubate overnight. The next day, the culture medium was removed and the compound diluted in assay medium was added in each well. […] 10 μL of cell lysates from the 96-well plates were transferred to a 384-well plate (Greiner) containing 2.5 μL/well HTRF® pre-mixed antibodies (Cisbio 64AERPEH). The plate was incubated 4 hours at 25° C. and then read HTRF signals on Tecan Spark multimode microplate reader. The data were analyzed using a 4-parameter logistic model to calculate IC50 values."}, "[8]": {"test_system": "p-ERK in SW620 cells (K-Ras G12V)", "experiment": "Phospho-ERK1/2(THR202/TYR204) HTRF assay, SW620", "type": "cell-based", "details": "Homo sapiens, SW-620, 2 h, 2 hours incubation"}, "[9]": {"test_system": "p-ERK in NCI-H358 cells (K-Ras G12C)", "experiment": "Phospho-ERK1/2(THR202/TYR204) HTRF assay, NCI-H358", "type": "cell-based", "details": "Homo sapiens, 2 hours incubation", "method": "as §1, §2"}, "[10]": {"test_system": "p-ERK in TCC-PAN2 cells (K-Ras G12R)", "experiment": "Phospho-ERK1/2(THR202/TYR204) HTRF assay, TCC-PAN2", "type": "cell-based", "details": "2 hours incubation", "method": "as §1, §2"}, "[11]": {"test_system": "p-ERK in NCI-H460 cells (K-Ras Q61H)", "experiment": "Phospho-ERK1/2(THR202/TYR204) HTRF assay, NCI-H460", "type": "cell-based", "details": "Homo sapiens, 2 hours incubation", "method": "(§3) p-ERK (MAPK pathway) inhibition activity of each of compounds in a variety of K-Ras mutant and K-Ras WT cell lines indicated in Table 23 was evaluated. MKN-1 with K-Ras WT amplification is also a K-Ras dependent cell line.\nas §2"}, "[12]": {"test_system": "p-ERK in MKN-1 cells (K-Ras WT amplification)", "experiment": "Phospho-ERK1/2(THR202/TYR204) HTRF assay, MKN-1", "type": "cell-based", "details": "Homo sapiens; MKN-1, K-Ras WT, 2 hours incubation", "method": "as §3, §2"}, "[13]": {"test_system": "AGS cells (K-Ras G12D)", "experiment": "2D cell growth inhibition assay, AGS", "type": "cell-based", "details": "Homo sapiens, 144 h, 6 days, absolute IC50"}, "[14]": {"test_system": "AsPC-1 cells (K-Ras G12D)", "experiment": "2D cell growth inhibition assay, AsPC-1", "type": "cell-based", "details": "Homo sapiens, ASPC1, 144 h, AsPC-1, K-Ras G12D, 6 days, absolute IC50"}, "[15]": {"test_system": "SW620 cells (K-Ras G12V)", "experiment": "2D cell growth inhibition assay, SW620", "type": "cell-based", "details": "Homo sapiens, SW-620, 144 h, 6 days, absolute IC50"}, "[16]": {"test_system": "TCC-PAN2 cells (K-Ras G12R)", "experiment": "3D cell growth inhibition assay, TCC-PAN2", "type": "cell-based", "details": "144 h, 6 days, absolute IC50", "method": "(§4) The cell growth inhibition activity of each of compounds was tested by performing cell growth inhibition assays on a variety of K-Ras mutant and K-Ras WT cell lines indicated in Table 25.\n(§5) Each of cells in culture medium was plated in ultra-low attachment-coated 96-well plates at a density indicated in Table 25 and incubated in a cell incubator overnight. The next day, each of compounds was diluted in culture medium and added to the plates. After 6 days incubation in cell incubator, the cell viability was detected by CellTiter-Glo® 3D Cell Viability Assay kit (Promega)."}, "[17]": {"test_system": "NCI-H460 cells (K-Ras Q61H)", "experiment": "3D cell growth inhibition assay, NCI-H460", "type": "cell-based", "details": "Homo sapiens, 144 h, 6 days, absolute IC50", "method": "as §4, §5"}, "[18]": {"test_system": "MKN-1 cells (K-Ras WT)", "experiment": "3D cell growth inhibition assay, MKN-1", "type": "cell-based", "details": "Homo sapiens, 144 h, MKN-1, K-Ras WT, 6 days, absolute IC50", "method": "as §4, §5"}, "[19]": {"target": "T7, K-Ras G12D (Homo sapiens, UniProt P01116, G12D)", "T7 sequence (P01116 1-169 isoform P01116-2 G12D)": "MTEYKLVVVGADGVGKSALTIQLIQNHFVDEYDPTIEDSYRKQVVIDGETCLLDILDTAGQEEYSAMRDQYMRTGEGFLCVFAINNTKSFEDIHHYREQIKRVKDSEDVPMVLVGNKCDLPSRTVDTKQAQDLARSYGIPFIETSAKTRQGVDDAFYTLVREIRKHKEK"}, "[20]": {"target": "T8, K-Ras G13D (Homo sapiens, UniProt P01116, G13D)", "T8 sequence (P01116 1-169 isoform P01116-2 G13D)": "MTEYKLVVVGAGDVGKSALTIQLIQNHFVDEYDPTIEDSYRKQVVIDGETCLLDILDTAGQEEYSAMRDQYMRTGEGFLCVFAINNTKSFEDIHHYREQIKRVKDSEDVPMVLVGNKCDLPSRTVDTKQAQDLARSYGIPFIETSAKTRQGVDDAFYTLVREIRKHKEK"}, "[21]": {"test_system": "p-ERK in NCI-H747 cells (K-Ras G13D)", "method": "as §1, §2"}, "[22]": {"test_system": "Capan-2 cells (K-Ras G12V)", "method": "as §4, §5"}, "[23]": {"test_system": "NCI-H358 cells (K-Ras G12C)", "method": "as §5"}, "[24]": {"test_system": "NCI-H747 cells (K-Ras G13D)", "method": "as §4, §5"}, "[25]": {"test_system": "RERF-LC-Ad1 cells (K-Ras G12A)", "method": "as §5"}, "[26]": {"target": "T6, K-Ras WT", "experiment": "GTP-K-Ras and cRAF interaction assay (GppNp-K-Ras), K-Ras WT", "details": "read-out: K-Ras WT GppNp Biochemical Activity (IC50)"}, "[27]": {"target": "T7, K-Ras G12D", "experiment": "GTP-K-Ras and cRAF interaction assay (GppNp-K-Ras), K-Ras G12D", "details": "read-out: K-Ras G12D GppNp Biochemical Activity (IC50)"}, "[28]": {"target": "T1, K-Ras G12V", "experiment": "GTP-K-Ras and cRAF interaction assay (GppNp-K-Ras), K-Ras G12V", "details": "read-out: K-Ras G12V GppNp Biochemical Activity (IC50)"}, "[29]": {"target": "T2, K-Ras G12C", "experiment": "GTP-K-Ras and cRAF interaction assay (GppNp-K-Ras), K-Ras G12C", "details": "read-out: K-Ras G12C GppNp Biochemical Activity (IC50)"}, "[30]": {"target": "T8, K-Ras G13D", "experiment": "GTP-K-Ras and cRAF interaction assay (GppNp-K-Ras), K-Ras G13D", "details": "read-out: K-Ras G13D GppNp Biochemical Activity (IC50)"}, "[31]": {"target": "T3, K-Ras G12A", "experiment": "GTP-K-Ras and cRAF interaction assay (GppNp-K-Ras), K-Ras G12A", "details": "read-out: K-Ras G12A GppNp Biochemical Activity (IC50)"}, "[32]": {"target": "T4, K-Ras G12R", "experiment": "GTP-K-Ras and cRAF interaction assay (GppNp-K-Ras), K-Ras G12R", "details": "read-out: K-Ras G12R GppNp Biochemical Activity (IC50)"}, "[33]": {"target": "T5, K-Ras Q61H", "experiment": "GTP-K-Ras and cRAF interaction assay (GppNp-K-Ras), K-Ras Q61H", "details": "read-out: K-Ras Q61H GppNp Biochemical Activity (IC50)"}},
  "note": "Read-outs that look alike come from different tables or passages of the source.",
  "data": [
    {"smiles": "C#Cc1c(F)ccc2cc(O)cc(-c3ncc4c(N5CCCOC[C@H]5C)nc(OC[C@@]56CCCN5C[C@H](F)C6)nc4c3F)c12", "note": "(single isomer, unassigned) [Compound 16B]", "values": [
      {"measurement": "IC50", "setting": "[1]", "value": 0.89, "unit": "nM"},
      {"measurement": "IC50", "setting": "[2]", "value": 1.12, "unit": "nM"},
      {"measurement": "IC50", "setting": "[3]", "value": 1.64, "unit": "nM"},
      {"measurement": "IC50", "setting": "[4]", "value": 0.994, "unit": "nM"},
      {"measurement": "IC50", "setting": "[5]", "value": 1.15, "unit": "nM"},
      {"measurement": "IC50", "setting": "[6]", "value": 1.72, "unit": "nM"},
      {"measurement": "IC50", "setting": "[7]", "value": 1.44, "unit": "nM"},
      {"measurement": "IC50", "setting": "[8]", "value": 5.07, "unit": "nM"},
      {"measurement": "IC50", "setting": "[9]", "value": 2.1, "unit": "nM"},
      {"measurement": "IC50", "setting": "[10]", "value": 97.6, "unit": "nM"},
      {"measurement": "IC50", "setting": "[11]", "value": 18.1, "unit": "nM"},
      {"measurement": "IC50", "setting": "[12]", "value": 2.97, "unit": "nM"},
      {"measurement": "IC50", "setting": "[13]", "value": 5.82, "unit": "nM"},
      {"measurement": "IC50", "setting": "[14]", "value": 53, "unit": "nM"},
      {"measurement": "IC50", "setting": "[15]", "value": 8.77, "unit": "nM"},
      {"measurement": "IC50", "setting": "[16]", "value": 319, "unit": "nM"},
      {"measurement": "IC50", "setting": "[17]", "value": 296, "unit": "nM"},
      {"measurement": "IC50", "setting": "[18]", "value": 20.9, "unit": "nM"},
      {"measurement": "IC50", "setting": "[19]", "value": 0.576, "unit": "nM"},
      {"measurement": "IC50", "setting": "[20]", "value": 2.22, "unit": "nM"},
      {"measurement": "IC50", "setting": "[21]", "value": 3.56, "unit": "nM"},
      {"measurement": "IC50", "setting": "[22]", "value": 121, "unit": "nM"},
      {"measurement": "IC50", "setting": "[23]", "value": 13.7, "unit": "nM"},
      {"measurement": "IC50", "setting": "[24]", "value": 21.6, "unit": "nM"},
      {"measurement": "IC50", "setting": "[25]", "value": 30.9, "unit": "nM"},
      {"measurement": "IC50", "setting": "[26]", "value": 21.5, "unit": "nM"},
      {"measurement": "IC50", "setting": "[27]", "value": 7.46, "unit": "nM"},
      {"measurement": "IC50", "setting": "[28]", "value": 10.4, "unit": "nM"},
      {"measurement": "IC50", "setting": "[29]", "value": 58.3, "unit": "nM"},
      {"measurement": "IC50", "setting": "[30]", "value": 2.3, "unit": "nM"},
      {"measurement": "IC50", "setting": "[31]", "value": 98.7, "unit": "nM"},
      {"measurement": "IC50", "setting": "[32]", "value": 15.7, "unit": "nM"},
      {"measurement": "IC50", "setting": "[33]", "value": 38.5, "unit": "nM"}
    ]}
  ]
}
